According to patent US6919309B2, “Methods and compositions for inhibiting angiogenesis” (Northwestern University, priority 1997, dated 2005):

B1: truncated peptide: trypsin-truncated PEDF missing the approximately 3-5 kDa carboxy-terminal portion (protein, listed as Homo Sapiens)
chain: NPASPPEEGSPDPDSTGALVEEEDPFFKVPVNKLAAAVSNFGYDLYRVRSSMSPTTNVLLSPLSVATALSALSLGADERTESIIHRALYYDLISSPDIHGTYKELLDTVTAPQKNLKSASRIVFEKKLRIKSSFVAPLEKSYGTRPRVLTGNPRLDLQEINNWVQAQMKGKLARSTKEIPDEISILLLGVAHFKGQWVTKFDSRKTSLEDFYLDEERTVRVPMMSDPKAVLRYGLDSDLSCKIAQLPLTGSMSIIFFLPLKVTQNLTLIEESLTSEFIHDIDRELKTVQAVLTVPKLKLSYEGEVTKSLQEMKLQSLFDSPDFSKITGKPIKLTQVEHRAGFEWNEDGAGTTPSPGLQPAHL

Columns and labels:
[1] = system: human dermal microvascular endothelial cells; test: Endothelial cell migration assay (modified Boyden chamber), human dermal microvascular endothelial cells; type: cell-based; details: VEGF 200 pg/ml gradient; FIG. 7
Experimental: (§1) The cells were plated on gelatinized Nucleopore membranes (5 μm pores for bovine capillary cells and 8 μm pores for other cells) in an inverted modified Boyden chamber. After two hours, the chamber was reinverted and test substances added to the top wells of each. Specifically, populations were exposed to either culture medium alone (control), 10 ng/ml bFGF, 2 nM PEDF (full length PEDF), or both 10 ng/ml bFGF (basic fibroblast growth factor) and 10 nM PEDF. The cells were then permitted to migrate for 3-4 hours. Following this, the membranes were fixed and stained, and the number of cells that had migrated were counted.
Additional truncated peptides derived from PEDF were tested for efficacy in the endothelial cell migration assay using human dermal microvascular endothelial cells (Clonetics, Cell Systems) at passage 9 in a modified Boyden Chamber, as described above, and the results are shown in FIG. 7. In FIG. 7A, the cells were exposed to the gradient of VEGF in the presence of purified recombinant PEDF (rPEDF), bacterially produced PEDF (BH) or PEDF peptides containing only amino acid residues 78-121 (44-mer) and 44-77 (34-mer) referring to SEQ ID NO:1. Neutralizing antibodies were added where shown to verify if the anti-angiogenic effect is specific to PEDF peptides and not due to contamination. Both full length PEDF preparations were used at 25 nM, neutralizing polyclonal antiserum against PEDF was used at 1:200 dilution, recombinant human VEGF (R&D Systems) at 200 pg/ml. In FIG. 7B, the cells were exposed to the gradient of VEGF in the presence of increasing concentrations of 34-mer and 44-mer peptides. The antiserum used in this experiment was not affinity purified, whereas the antiserum used in all other experiments presented herein was affinity purified.

[2] = system: bovine adrenal capillary endothelial cells; test: Endothelial cell migration assay (modified Boyden chamber), bovine adrenal capillary endothelial cells; type: cell-based; details: migration towards bFGF; FIGS. 4 and 5
Experimental: as §1
The amount of a given factor necessary to achieve 50% of migration was determined and is reported here as ED50.
In particular, aFGF was employed at a concentration of 50 ng/ml, bFGF was employed at a concentration of 10 ng/ml, IL-8 was employed at a concentration of 40 ng/ml, PDGF was employed at a concentration of 250 pg/ml, and VEGF was employed at a concentration of 100 pg/ml.
In studies aimed at identifying antiangiogenic factors in the eye that might be regulated by the retinoblastoma tumor suppressor gene (Rb), media was fractionated where the media was previously conditioned by a retinoblastoma cell line that had been infected with a retrovirus expressing the wild-type Rb gene, WERI-Rb-27R. (Xu et al., 1991, Cancer Res. 51:4481). […] PEDF was purified from WERI-Rb-27R serum-free conditioned media by sequential steps consisting of dialysis (molecular mass cutoff, 30 kD) against distilled water, 60 to 95% ammonium sulfate precipitation, step elution from lentil lectin Sepharose 4B (Pharmacia) with 0.5 M α-methyl-D-mannopyranoside, and elution from a HiTrap heparin Sepharose column (Pharmacia) with increasing NACl gradient. (Xu, et al., 1991, Cancer Res. 51:4481). […] Migration assays were performed in quadruplicate for each sample with bovine adrenal capillary endothelial cells or human dermal microvascular endothelial cells (Clonetics, San Diego, Calif.) as described. (Polverini, et al., 1991, Methods Enzymol. 198:440). To combine multiple experiments, background migration (Bkgd) was first subtracted toward vehicle (0.1% bovine serum albumin) and them normalized data by setting maximum migration toward inducer alone to 100%. All experiments were repeated two to five times. Statistics were performed on raw data before normalization with the Student's t test. Standard errors were converted to percentages. […] Single-letter abbreviations for the amino acid residues are as follows: A, Ala; D, Asp; E. Glu; F. Phe; G, Gly; I, Ile; L, Leu; M, Met; P, Pro; Q, Gln; R, Arg; S, Ser; T, Thr; V, Val; X, any amino acid; and Y, Tyr.

Molecule	anti-angiogenic activity (block of migration towards VEGF) [1]	potency at inhibiting endothelial cell migration, dose response [2]
44 amino acid peptide: PEDF peptide containing only amino acid residues 78-121 of SEQ ID NO:1 (VLLSPLSVATALSALSLGADERTESIIHRALYYDLISSPDIHGT; listed as Homo Sapiens)	not active as an anti-angiogenic agent	–
MQALVLLLCIGALLGHSSCQNPASPPEEGSPDPDSTGALVEEEDPFFKVPVNKLAAAVSNFGYDLYRVRSSMSPTTNVLLSPLSVATALSALSLGADERTESIIHRALYYDLISSPDIHGTYKELLDTVTAPQKNLKSASRIVFEKKLRIKSSFVAPLEKSYGTRPRVLTGNPRLDLQEINNWVQAQMKGKLARSTKEIPDEISILLLGVAHFKGQWVTKFDSRKTSLEDFYLDEERTVRVPMMSDPKAVLRYGLDSDLSCKIAQLPLTGSMSIIFFLPLKVTQNLTLIEESLTSEFIHDIDRELKTVQAVLTVPKLKLSYEGEVTKSLQEMKLQSLFDSPDFSKITGKPIKLTQVEHRAGFEWNEDGAGTTPSPGLQPAHLTFPLDYHLNQPFIFVLRDTDTGALLFIGKILDPRGP [34 amino acid peptide]	active as an anti-angiogenic agent	–
B1	–	similarly potent at inhibiting endothelial cell migration
